Experimental data: ChEMBL document CHEMBL1158297, “Compounds from Syzygium aromaticum possessing growth inhibitory activity against oral pathogens” (1996)
Values after ≈ are worked out from the molar mass of the structure shown.

Experiments:
Assay type in all cases: functional
[1] = tested on: Streptococcus mutans; experiment: Antimicrobial activity against Streptococcus mutans Ingbritt by disk diffusion method
[2] = tested on: Prevotella intermedia; experiment: Antimicrobial activity against Prevotella intermedia by disk diffusion method
[3] = tested on: Porphyromonas gingivalis; experiment: Antimicrobial activity against Porphyromonas gingivalis ATCC 33277 by disk diffusion method
[4] = tested on: Actinomyces viscosus; experiment: Antimicrobial activity against Actinomyces viscosus W1053 by disk diffusion method

Structure (SMILES) | MIC [1] [µg/mL] | MIC [2] [µg/mL] | MIC [3] [µg/mL] | MIC [4] [µg/mL]
Cc1cc(=O)c2c(O)c([C@@H]3O[C@H](CO)[C@@H](O)[C@H](O)[C@H]3O)c(O)cc2o1 [BIFLORIN] | > 2500 | 625 (≈ 1760 µM) | 625 (≈ 1760 µM) | > 2500
CC1(C)CC[C@]2(C(=O)O)CC[C@]3(C)C(=CC[C@@H]4[C@@]5(C)CC[C@H](O)C(C)(C)[C@@H]5CC[C@]43C)[C@@H]2C1 [OLEANOLIC_ACID] | 1250 (≈ 2740 µM) | 1250 (≈ 2740 µM) | 625 (≈ 1370 µM) | 625 (≈ 1370 µM)
O=c1c(O)c(-c2ccc(O)cc2)oc2cc(O)cc(O)c12 [KAEMPFEROL] | 2500 (≈ 8730 µM) | 20 (≈ 69.9 µM) | 20 (≈ 69.9 µM) | 1250 (≈ 4370 µM)
O=c1oc2c(O)c(O)cc3c(=O)oc4c(O)c(O)cc1c4c23 [ELLAGIC ACID] | 1250 (≈ 4140 µM) | 1250 (≈ 4140 µM) | 1250 (≈ 4140 µM) | 1250 (≈ 4140 µM)
COc1cc(O)c2c(=O)c(O)c(-c3ccc(O)cc3)oc2c1 [RHAMNOCITRIN] | 1250 (≈ 4160 µM) | 625 (≈ 2080 µM) | 625 (≈ 2080 µM) | 1250 (≈ 4160 µM)
O=c1c(O)c(-c2cc(O)c(O)c(O)c2)oc2cc(O)cc(O)c12 [MYRICETIN] | 2500 (≈ 7860 µM) | 20 (≈ 62.8 µM) | 20 (≈ 62.8 µM) | 1250 (≈ 3930 µM)
C[n+]1cc2c3c(ccc2c2ccc4cc5c(cc4c21)OCO5)OCO3 [SANGUINARIUM] | 15 | 2 | 2 | 15
O=C(O)c1cc(O)c(O)c(O)c1 [GALLIC ACID] | > 2500 | 78 (≈ 458 µM) | 156 (≈ 917 µM) | 78 (≈ 458 µM)
